Assay results reported in US8691865B2 (AbbVie Inc., priority 2008, dated 2014).

target: human Cav2.2 (Homo sapiens, UniProt Q00975); assay: Assessment of calcium channel activity using FLIPR (Ca2+ influx in IMR32 cells); type: cell-based; conditions: not given
Method in brief: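 IC50 values derive from nonlinear sigmoidal fitting of percent inhibition, relative to inhibitor-free activity, of Ca2+ influx read by FLIPR. Cells were IMR32 human neuroblastoma, plated at 1−1.2×10^5 per well and grown 48 h at 37 °C.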

Sequence of human Cav2.2 (Q00975 whole entry): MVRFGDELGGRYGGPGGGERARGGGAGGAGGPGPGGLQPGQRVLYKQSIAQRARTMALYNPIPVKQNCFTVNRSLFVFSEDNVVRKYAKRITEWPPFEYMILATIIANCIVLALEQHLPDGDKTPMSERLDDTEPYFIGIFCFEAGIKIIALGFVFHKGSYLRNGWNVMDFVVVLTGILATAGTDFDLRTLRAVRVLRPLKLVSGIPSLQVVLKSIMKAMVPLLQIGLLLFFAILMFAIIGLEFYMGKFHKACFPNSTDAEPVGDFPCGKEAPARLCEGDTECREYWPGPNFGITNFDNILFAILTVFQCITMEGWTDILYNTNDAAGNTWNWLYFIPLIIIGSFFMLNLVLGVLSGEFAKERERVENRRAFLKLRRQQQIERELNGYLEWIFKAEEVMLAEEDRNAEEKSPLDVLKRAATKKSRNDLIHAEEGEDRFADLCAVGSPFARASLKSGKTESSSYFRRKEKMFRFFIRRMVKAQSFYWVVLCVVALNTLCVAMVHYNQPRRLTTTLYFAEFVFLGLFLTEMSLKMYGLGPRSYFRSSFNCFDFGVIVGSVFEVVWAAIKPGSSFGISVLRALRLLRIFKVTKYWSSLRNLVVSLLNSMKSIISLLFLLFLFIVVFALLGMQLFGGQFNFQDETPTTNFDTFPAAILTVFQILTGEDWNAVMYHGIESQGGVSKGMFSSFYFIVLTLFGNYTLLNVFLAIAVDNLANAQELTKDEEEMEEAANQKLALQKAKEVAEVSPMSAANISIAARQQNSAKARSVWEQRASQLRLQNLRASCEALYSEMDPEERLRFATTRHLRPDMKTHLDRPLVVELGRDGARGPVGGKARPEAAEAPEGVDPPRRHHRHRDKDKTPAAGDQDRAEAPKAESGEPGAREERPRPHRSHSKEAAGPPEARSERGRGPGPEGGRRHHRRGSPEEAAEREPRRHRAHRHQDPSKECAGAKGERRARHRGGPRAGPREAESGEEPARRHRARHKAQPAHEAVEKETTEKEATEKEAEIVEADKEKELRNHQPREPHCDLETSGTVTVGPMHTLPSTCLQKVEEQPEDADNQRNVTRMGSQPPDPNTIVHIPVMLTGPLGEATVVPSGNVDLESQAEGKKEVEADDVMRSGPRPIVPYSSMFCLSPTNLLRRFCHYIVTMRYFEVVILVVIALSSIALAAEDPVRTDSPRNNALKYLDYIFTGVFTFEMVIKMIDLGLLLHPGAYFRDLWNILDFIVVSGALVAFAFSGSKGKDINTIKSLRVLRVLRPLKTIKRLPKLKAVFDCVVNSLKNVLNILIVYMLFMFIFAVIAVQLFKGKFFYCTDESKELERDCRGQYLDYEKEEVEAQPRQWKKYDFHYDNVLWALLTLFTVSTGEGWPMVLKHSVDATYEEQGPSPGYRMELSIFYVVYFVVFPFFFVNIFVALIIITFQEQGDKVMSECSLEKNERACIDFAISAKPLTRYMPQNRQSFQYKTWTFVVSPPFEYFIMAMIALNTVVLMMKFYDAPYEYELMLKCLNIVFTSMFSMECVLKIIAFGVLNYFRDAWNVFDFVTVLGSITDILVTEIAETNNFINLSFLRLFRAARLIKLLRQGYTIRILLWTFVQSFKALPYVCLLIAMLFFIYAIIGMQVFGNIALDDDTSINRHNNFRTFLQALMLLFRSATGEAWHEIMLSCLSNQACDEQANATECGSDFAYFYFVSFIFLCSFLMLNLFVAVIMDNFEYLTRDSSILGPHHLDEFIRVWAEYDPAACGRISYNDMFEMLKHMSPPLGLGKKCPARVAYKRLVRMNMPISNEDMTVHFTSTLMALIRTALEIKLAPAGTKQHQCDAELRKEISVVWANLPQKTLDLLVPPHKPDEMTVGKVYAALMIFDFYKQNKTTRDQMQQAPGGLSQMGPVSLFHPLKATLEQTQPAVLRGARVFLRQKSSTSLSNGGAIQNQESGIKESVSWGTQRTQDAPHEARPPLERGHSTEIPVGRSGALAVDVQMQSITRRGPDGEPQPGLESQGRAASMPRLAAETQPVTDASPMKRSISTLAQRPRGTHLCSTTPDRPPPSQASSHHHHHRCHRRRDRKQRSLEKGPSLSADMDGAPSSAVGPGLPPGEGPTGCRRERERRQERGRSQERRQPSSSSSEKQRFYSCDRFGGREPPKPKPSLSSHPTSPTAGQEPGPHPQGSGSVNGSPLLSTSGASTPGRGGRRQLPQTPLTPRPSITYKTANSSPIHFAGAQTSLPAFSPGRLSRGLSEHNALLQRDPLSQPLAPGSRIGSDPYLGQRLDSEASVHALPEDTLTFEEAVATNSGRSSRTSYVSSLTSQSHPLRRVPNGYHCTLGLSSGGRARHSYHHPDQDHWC
Sequence of human Cav2.2 (P54289 25-956 partner limits assumed): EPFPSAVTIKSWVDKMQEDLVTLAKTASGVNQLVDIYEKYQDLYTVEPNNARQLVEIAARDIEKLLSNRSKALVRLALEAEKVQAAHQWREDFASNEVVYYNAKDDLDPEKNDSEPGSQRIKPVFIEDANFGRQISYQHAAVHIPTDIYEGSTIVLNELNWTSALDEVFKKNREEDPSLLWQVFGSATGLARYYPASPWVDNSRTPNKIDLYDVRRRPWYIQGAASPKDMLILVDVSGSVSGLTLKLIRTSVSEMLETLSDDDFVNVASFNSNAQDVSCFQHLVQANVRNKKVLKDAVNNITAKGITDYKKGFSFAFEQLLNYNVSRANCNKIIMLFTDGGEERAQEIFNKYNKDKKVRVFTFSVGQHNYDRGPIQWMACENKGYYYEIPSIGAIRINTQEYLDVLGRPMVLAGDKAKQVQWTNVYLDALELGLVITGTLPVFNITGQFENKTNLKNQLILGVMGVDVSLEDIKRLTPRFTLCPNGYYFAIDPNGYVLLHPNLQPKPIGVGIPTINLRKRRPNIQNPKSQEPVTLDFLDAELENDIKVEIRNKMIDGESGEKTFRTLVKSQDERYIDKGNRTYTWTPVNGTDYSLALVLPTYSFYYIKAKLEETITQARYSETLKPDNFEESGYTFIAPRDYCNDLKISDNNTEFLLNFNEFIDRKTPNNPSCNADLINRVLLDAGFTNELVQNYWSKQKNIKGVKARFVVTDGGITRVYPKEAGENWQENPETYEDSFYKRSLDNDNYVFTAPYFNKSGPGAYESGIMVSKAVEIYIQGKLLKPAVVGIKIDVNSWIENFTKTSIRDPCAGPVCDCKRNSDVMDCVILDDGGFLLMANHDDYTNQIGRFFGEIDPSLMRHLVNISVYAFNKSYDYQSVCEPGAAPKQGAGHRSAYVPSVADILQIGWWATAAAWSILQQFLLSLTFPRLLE
Sequence of human Cav2.2 (P54289 957-1103 partner limits assumed): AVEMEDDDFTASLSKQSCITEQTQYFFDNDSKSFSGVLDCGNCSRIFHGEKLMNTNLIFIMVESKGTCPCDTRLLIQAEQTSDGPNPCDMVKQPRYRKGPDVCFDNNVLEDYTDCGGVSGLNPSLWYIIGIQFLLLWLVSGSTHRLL
Sequence of human Cav2.2 (P54284 whole entry partner): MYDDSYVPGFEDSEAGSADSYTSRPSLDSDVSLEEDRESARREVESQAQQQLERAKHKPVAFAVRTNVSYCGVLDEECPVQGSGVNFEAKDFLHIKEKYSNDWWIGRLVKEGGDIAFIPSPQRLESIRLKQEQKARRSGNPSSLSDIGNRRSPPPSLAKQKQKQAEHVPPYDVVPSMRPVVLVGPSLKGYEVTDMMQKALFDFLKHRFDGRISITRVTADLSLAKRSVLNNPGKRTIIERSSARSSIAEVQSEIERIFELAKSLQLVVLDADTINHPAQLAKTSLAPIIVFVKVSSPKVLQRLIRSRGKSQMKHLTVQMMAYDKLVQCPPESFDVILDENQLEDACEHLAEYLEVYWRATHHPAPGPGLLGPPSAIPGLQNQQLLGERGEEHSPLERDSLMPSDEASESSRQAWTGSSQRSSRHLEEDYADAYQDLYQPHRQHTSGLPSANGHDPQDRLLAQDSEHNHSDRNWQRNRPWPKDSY

| SMILES | IC50 [µM] |
| --- | --- |
| CN[C@H](C(=O)N[C@H]1CC[C@@H]2CN(c3ccc(C(F)(F)F)cn3)C[C@@H]21)C(C)C [Example 763, N^2-methyl-N-{(3aR,4S,6aS)-2-[5-(trifluoromethyl)pyridin-2-yl]octahydrocyclopenta[c]pyrrol-4-yl}-L-valinamide] | 12.3 |
| FC(F)(F)c1cccc(N2C[C@H]3CC[C@H](NCc4cc5ccccc5[nH]4)[C@H]3C2)n1 [Example 612, (3aR,4S,6aS)-N-(1H-indol-2-ylmethyl)-2-[6-(trifluoromethyl)pyridin-2-yl]octahydrocyclopenta[c]pyrrol-4-amine] | 2.24 |
| O=C(N[C@H]1CC[C@@H]2CN(c3ccc(C(F)(F)F)cn3)C[C@@H]21)[C@@H]1C[C@@H]2CCCC[C@@H]2N1 [Example 603, (2S,3aS,7aS)-N-{(3aR,4S,6aS)-2-[5-(trifluoromethyl)pyridin-2-yl]octahydrocyclopenta[c]pyrrol-4-yl}octahydro-1H-indole-2-carboxamide] | 2.22 |
| FC(F)(F)c1cccc(N2C[C@H]3CC[C@H](NCc4cccc5nsnc45)[C@H]3C2)n1 [Example 728, (3aR,4S,6aS)-N-(2,1,3-benzothiadiazol-4-ylmethyl)-2-[6-(trifluoromethyl)pyridin-2-yl]octahydrocyclopenta[c]pyrrol-4-amine] | 0.48 |
| O=C(N[C@H]1CC[C@@H]2CN(c3ccc(F)cc3)C[C@@H]21)[C@@H]1C[C@@H](F)CN1 [Example 641, (4R)-4-fluoro-N-[(3aR,4S,6aS)-2-(4-fluorophenyl)octahydrocyclopenta[c]pyrrol-4-yl]-L-prolinamide] | 26.2 |
| CCCC[C@H](NC)C(=O)N[C@H]1CC[C@@H]2CN(c3ccc(C(F)(F)F)cn3)C[C@@H]21 [Example 601, N^2-methyl-N-{(3aR,4S,6aS)-2-[5-(trifluoromethyl)pyridin-2-yl]octahydrocyclopenta[c]pyrrol-4-yl}-L-norleucinamide] | 2.11 |
| CC(C)CN[C@H]1CC[C@@H]2CN(c3cccc(C(F)(F)F)n3)C[C@@H]21 [Example 610, (3aR,4S,6aS)-N-isobutyl-2-[6-(trifluoromethyl)pyridin-2-yl]octahydrocyclopenta[c]pyrrol-4-amine] | 2.01 |
| O=C(N[C@H]1CC[C@@H]2CN(c3ccccc3C(F)(F)F)C[C@@H]21)[C@@H]1C[C@@H](F)CN1 [Example 622, (4R)-4-fluoro-N-{(3aR,4S,6aS)-2-[2-(trifluoromethyl)phenyl]octahydrocyclopenta[c]pyrrol-4-yl}-L-prolinamide] | 1.69 |
| Fc1cnc2[nH]cc(CN[C@H]3CC[C@@H]4CN(c5cccc(C(F)(F)F)n5)C[C@@H]43)c2c1 [Example 690, (3aR,4S,6aS)-N-[(5-fluoro-1H-pyrrolo[2,3-b]pyridin-3-yl)methyl]-2-[6-(trifluoromethyl)pyridin-2-yl]octahydrocyclopenta[c]pyrrol-4-amine] | 0.75 |
| CN[C@@H](CC(C)C)C(=O)N[C@H]1CC[C@@H]2CN(c3ccc(OC(F)(F)F)cc3F)C[C@@H]21 [Example 774, N-{(3aR,4S,6aS)-2-[2-fluoro-4-(trifluoromethoxy)phenyl]octahydrocyclopenta[c]pyrrol-4-yl}-N^2-methyl-L-leucinamide] | 1.15 |
| CN[C@@H](CC(C)C)C(=O)N[C@H]1CC[C@@H]2CN(c3ccc(F)cc3C(F)(F)F)C[C@@H]21 [Example 737, N-{(3aR,4S,6aS)-2-[4-fluoro-2-(trifluoromethyl)phenyl]octahydrocyclopenta[c]pyrrol-4-yl}-N^2-methyl-L-leucinamide] | 0.36 |
| CN[C@H](C(=O)N[C@@H]1CC[C@H]2CN(Cc3ccccc3)C[C@H]21)C(C)C [Example 351, N^1-[(3aS,4R,6aR)-2-benzyloctahydrocyclopenta[c]pyrrol-4-yl]-N^2-methyl-L-valinamide] | > 30 |
| O=S(=O)(N[C@@H]1CC[C@@H]2CN(Cc3cccc(C(F)(F)F)c3)C[C@@H]21)c1cccc(C(F)(F)F)c1 [Example 188, 3-(trifluoromethyl)-N-{(3aR,4R,6aS)-2-[3-(trifluoromethyl)benzyl]octahydrocyclopenta[c]pyrrol-4-yl}benzenesulfonamide] | 0.85 |
| CN[C@@H](CC(C)C)C(=O)N[C@H]1CC[C@@H]2CN(c3cccnc3C(F)(F)F)C[C@@H]21 [Example 767, N^2-methyl-N-{(3aR,4S,6aS)-2-[2-(trifluoromethyl)pyridin-3-yl]octahydrocyclopenta[c]pyrrol-4-yl}-L-leucinamide] | 6.93 |
| CCC[C@H](NC)C(=O)N[C@H]1CC[C@@H]2CN(S(=O)(=O)c3cccnc3)C[C@@H]21 [Example 535, N^2-methyl-N^1-[(3aR,4S,6aS)-2-(pyridin-3-ylsulfonyl)octahydrocyclopenta[c]pyrrol-4-yl]-L-norvalinamide] | > 30 |
| O=C(N[C@H]1CC[C@@H]2CN(c3cccc(C(F)(F)F)n3)C[C@@H]21)c1cccc(F)c1 [Example 564, 3-fluoro-N-{(3aR,4S,6aS)-2-[6-(trifluoromethyl)pyridin-2-yl]octahydrocyclopenta[c]pyrrol-4-yl}benzamide] | 0.34 |
| FC(F)(F)c1cccc(N2C[C@H]3CC[C@H](NCc4nc(-c5ccc(Cl)cc5)c[nH]4)[C@H]3C2)n1 [Example 745, (3aR,4S,6aS)-N-{[4-(4-chlorophenyl)-1H-imidazol-2-yl]methyl}-2-[6-(trifluoromethyl)pyridin-2-yl]octahydrocyclopenta[c]pyrrol-4-amine] | 3.51 |

same assay, conditions: read-out: IC50 (μM) or percent inhibition (* indicates 3 minute incubation, otherwise 60 minute); IC50; 60 minute pre-incubation with compound; IMR32 cells, 80 mM KCl depolarization

| SMILES | IC50 [µM] |
| --- | --- |
| CC(C)C[C@@H](C(=O)N[C@@H]1CC[C@H]2CN(Cc3cccc(C(F)(F)F)c3)C[C@H]21)N(C)C(=O)C(C)(C)C [Example 176, N^2-(2,2-dimethylpropanoyl)-N^2-methyl-N^1-{(3aS,4R,6aR)-2-[3-(trifluoromethyl)benzyl]octahydrocyclopenta[c]pyrrol-4-yl}-L-leucinamide] | 0.86 |
| O=S(=O)(N[C@@H]1CC[C@H]2CN(CCCCCC(c3ccc(F)cc3)c3ccc(F)cc3)C[C@H]21)c1cccc(C(F)(F)F)c1 [Example 191, N-{(3aS,4R,6aR)-2-[6,6-bis(4-fluorophenyl)hexyl]octahydrocyclopenta[c]pyrrol-4-yl}-3-(trifluoromethyl)benzenesulfonamide] | 0.51 |
| CC(C)C(C(=O)N[C@H]1CC[C@@H]2CN(Cc3ccccc3)C[C@@H]21)c1ccccc1 (stereo partly drawn) [Example 35, N-[(3aR,4S,6aS)-2-benzyloctahydrocyclopenta[c]pyrrol-4-yl]-3-methyl-2-phenylbutanamide] | 3.26 |
| CC(C)C[C@@H](N)C(=O)N[C@@H]1CC[C@H]2CN(Cc3cccc(C(F)(F)F)c3)C[C@H]21 (relative stereo) [Example 162, N^1-{(3aS*,4R*,6aR*)-2-[3-(trifluoromethyl)benzyl]octahydrocyclopenta[c]pyrrol-4-yl}-D-leucinamide] | 3.94 |
| O=C(N[C@@H]1CC[C@H]2CN(Cc3cccc(C(F)(F)F)c3)C[C@H]21)C(O)(C1CCCCC1)C1CCCCC1 [Example 154, 2,2-dicyclohexyl-2-hydroxy-N-{(3aS,4R,6aR)-2-[3-(trifluoromethyl)benzyl]octahydrocyclopenta[c]pyrrol-4-yl}acetamide] | 1.33 |
| O=C(N[C@@H]1CC[C@H]2CN(S(=O)(=O)c3ccc(F)cc3)C[C@H]21)[C@@H]1CCCCN1 [Example 399, (2S)-N-{(3aS,4R,6aR)-2-[(4-fluorophenyl)sulfonyl]octahydrocyclopenta[c]pyrrol-4-yl}piperidine-2-carboxamide] | 15.3 |
